Results reported in patent publication US10316017B2, “COT modulators and methods of use thereof” (Gilead Sciences, Inc., priority 2015, dated 2019).

Target: T1, human Cot catalytic domain (30-397 amino acids) (Homo sapiens, UniProt P41279)
T1 construct: Purified recombinant human Cot catalytic domain (30-397 amino acids) was purchased from Cama Biosciences; purchased Cama Biosciences (so in the source)
Experiment: High Throughput Cot Biochemical Assay (KinEASE TR-FRET)
Conditions: Cot KinEASE TR-FRET, 400 μM ATP; read-out: IC50 HTRF
Summary of the method: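 TR-FRET readout: Eu-labeled phospho-specific antibody binds XL665-tagged STK3 peptide after phosphorylation by Cot (aa 30-397, 5 nM). Conditions: 400 μM ATP, 1 μM peptide, MOPS pH 7.0 buffer with MgOAc, DTT, BSA, NP-40, glycerol; 0.1% DMSO.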

T1 sequence (P41279 30-397): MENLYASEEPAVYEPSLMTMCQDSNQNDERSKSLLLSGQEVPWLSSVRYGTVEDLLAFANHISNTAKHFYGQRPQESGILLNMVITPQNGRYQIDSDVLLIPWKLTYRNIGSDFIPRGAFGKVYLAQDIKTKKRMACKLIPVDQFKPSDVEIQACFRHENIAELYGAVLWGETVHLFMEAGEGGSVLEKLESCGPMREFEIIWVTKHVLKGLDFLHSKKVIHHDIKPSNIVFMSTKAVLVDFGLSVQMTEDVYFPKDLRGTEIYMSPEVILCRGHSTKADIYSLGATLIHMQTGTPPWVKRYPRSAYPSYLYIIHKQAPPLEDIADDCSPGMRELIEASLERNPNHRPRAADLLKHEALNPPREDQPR

Structure (SMILES)	IC50 [nM]
CCN1CC[C@@H](n2cc(C(Nc3cc(Cl)c4ncc(C#N)c(Nc5ccc(F)c(Cl)c5)c4c3)c3ccc(F)cc3)nn2)C1 (stereo partly drawn) [Example 865, 8-chloro-4-((3-chloro-4-fluorophenyl)amino)-6-(((1-((R)-1-ethylpyrrolidin-3-yl)-1H-1,2,3-triazol-4-yl)(4-fluorophenyl)methyl)amino) quinoline-3-carbonitrile]	46
N#Cc1cnc2c(Cl)cc(NC(c3ccc(Cl)cc3)c3cn([C@@H]4CCN(C(=O)OCc5ccccc5)C4)nn3)cc2c1Nc1ccc(F)c(Cl)c1 (stereo partly drawn) [Example 866, benzyl (3R)-3-(4-(((8-chloro-4-((3-chloro-4-fluorophenyl)amino)-3-cyanoquinolin-6-yl)amino)(4-chlorophenyl)methyl)-1H-1,2,3-triazol-1-yl)pyrrolidine-1-carboxylate]	2100
N#Cc1cnc2c(Cl)cc(NC(c3ccc(Cl)cc3)c3cn([C@@H]4CCNC4)nn3)cc2c1Nc1ccc(F)c(Cl)c1 (stereo partly drawn) [Example 867, 8-chloro-4-((3-chloro-4-fluorophenyl)amino)-6-(((4-chlorophenyl)(1-((R)-pyrrolidin-3-yl)-1H-1,2,3-triazol-4-yl)methyl)amino)quinoline-3-carbonitrile]	46
CCN1CC[C@@H](n2cc(C(Nc3cc(Cl)c4ncc(C#N)c(Nc5ccc(F)c(Cl)c5)c4c3)c3ccc(Cl)cc3)nn2)C1 (stereo partly drawn) [Example 868, 8-chloro-4-((3-chloro-4-fluorophenyl)amino)-6-(((4-chlorophenyl)(1-((R)-1-ethylpyrrolidin-3-yl)-1H-1,2,3-triazol-4-yl)methyl)amino)quinoline-3-carbonitrile]	119
CCN1CC(n2cc(C(Nc3cc(Cl)c4ncc(C#N)c(Nc5ccc(F)c(Cl)c5)c4c3)c3ccc(F)cc3)nn2)C1 (stereo not drawn) [Example 870, 8-chloro-4-((3-chloro-4-fluorophenyl)amino)-6-(((1-(1-ethylazetidin-3-yl)-1H-1,2,3-triazol-4-yl)(4-fluorophenyl)methyl)amino) quinoline-3-carbonitrile]	27
CCN1CC(n2cc(C(Nc3cc(Cl)c4ncc(C#N)c(Nc5ccc(F)c(Cl)c5)c4c3)c3ccc(Cl)cc3)nn2)C1 (stereo not drawn) [Example 871, 8-chloro-4-((3-chloro-4-fluorophenyl)amino)-6-(((4-chlorophenyl)(1-(1-ethylazetidin-3-yl)-1H-1,2,3-triazol-4-yl)methyl)amino)quinoline-3-carbonitrile]	90
N#Cc1cnc2c(Cl)cc(NC(c3cc(C(F)(F)F)cc(C(F)(F)F)c3)c3cn(C4CCNCC4)nn3)cc2c1Nc1ccc(F)c(Cl)c1 (stereo not drawn) [Example 874, 6-(((3,5-bis(trifluoromethyl)phenyl)(1-(piperidin-4-yl)-1H-1,2,3-triazo1-4-yl)methyl)amino)-8-chloro-4-((3-chloro-4-fluorophenyl)amino)quinoline-3-carbonitrile]	97
N#Cc1cnc2c(Cl)cc(NC(c3cc(F)c(F)c(F)c3)c3cn(C4CCNCC4)nn3)cc2c1Nc1ccc(F)c(Cl)c1 (stereo not drawn) [Example 875, 8-chloro-4-((3-chloro-4-fluorophenyl)amino)-6-(((1-(piperidin-4-yl)-1H-1,2,3-triazol-4-yl)(3,4,5-trifluorophenyl)methyl)amino) quinoline-3-carbonitrile]	66
N#Cc1cnc2c(Cl)cc(NC(c3ccc(F)cc3)c3cn([C@H]4CCN(C(=O)OCc5ccccc5)C4)nn3)cc2c1Nc1ccc(F)c(Cl)c1 (stereo partly drawn) [Example 876, benzyl (3S)-3-(4-(((8-chloro-4-((3-chloro-4-fluorophenyl)amino)-3-cyanoquinolin-6-yl)amino)(4-fluorophenyl)methyl)-1H-1,2,3-triazol-1-yl)pyrrolidine-1-carboxylate]	385
CCN1CC[C@H](n2cc(C(Nc3cc(Cl)c4ncc(C#N)c(Nc5ccc(F)c(Cl)c5)c4c3)c3ccc(F)cc3)nn2)C1 (stereo partly drawn) [Example 877, 8-chloro-4-((3-chloro-4-fluorophenyl)amino)-6-(((1-((S)-1-ethylpyrrolidin-3-yl)-1H-1,2,3-triazol-4-yl)(4-fluorophenyl)methyl)amino) quinoline-3-carbonitrile]	47
N#Cc1cnc2c(Cl)cc(NC(c3ccc(Cl)cc3)c3cn([C@H]4CCN(C(=O)OCc5ccccc5)C4)nn3)cc2c1Nc1ccc(F)c(Cl)c1 (stereo partly drawn) [Example 878, benzyl (3S)-3-(4-(((8-chloro-4-((3-chloro-4-fluorophenyl)amino)-3-cyanoquinolin-6-yl)amino)(4-chlorophenyl)methyl)-1H-1,2,3-triazol-1-yl)pyrrolidine-1-carboxylate]	7700
CCN1CC[C@H](n2cc(C(Nc3cc(Cl)c4ncc(C#N)c(Nc5ccc(F)c(Cl)c5)c4c3)c3ccc(Cl)cc3)nn2)C1 (stereo partly drawn) [Example 879, 8-chloro-4-((3-chloro-4-fluorophenyl)amino)-6-(((4-chlorophenyl)(1-((S)-1-ethylpyrrolidin-3-yl)-1H-1,2,3-triazol-4-yl)methyl)amino)quinoline-3-carbonitrile]	101
N#Cc1cnc2c(Cl)cc(NC(c3ccc(Cl)cc3)c3cn([C@H]4CCNC4)nn3)cc2c1Nc1ccc(F)c(Cl)c1 (stereo partly drawn) [Example 880, 8-chloro-4-((3-chloro-4-fluorophenyl)amino)-6-(((4-chlorophenyl)(1-((S)-pyrrolidin-3-yl)-1H-1,2,3-triazol-4-yl)methyl)amino)quinoline-3-carbonitrile]	68
Cc1cc(F)ccc1C(Nc1cc(Cl)c2ncc(C#N)c(Nc3ccc(F)c(Cl)c3)c2c1)c1cn(C2CCN(C(=O)OCc3ccccc3)CC2)nn1 (stereo not drawn) [Example 883, benzyl 4-(4-(((8-chloro-4-((3-chloro-4-fluorophenyl)amino)-3-cyanoquinolin-6-yl)amino)(4-fluoro-2-methylphenyl)methyl)-1H-1,2,3-triazol-1-yl) piperidine-1-carboxylate]	6680
N#Cc1cnc2c(Cl)cc(NC(c3ccc(F)cc3)c3cn(C4CCNCC4)nn3)cc2c1Nc1ccc(F)c(Cl)c1 (stereo not drawn) [Example 886, 8-chloro-4-((3-chloro-4-fluorophenyl)amino)-6-(((4-fluorophenyl)(1-(piperidin-4-yl)-1H-1,2,3-triazol-4-yl)methyl)amino)quinoline-3-carbonitrile]	11
N#Cc1cnc2c(Cl)cc(NC(c3ccccc3)c3c[nH]nn3)cc2c1Nc1ccc(F)c(Cl)c1 (stereo not drawn) [Example 888, 8-chloro-4-((3-chloro-4-fluorophenyl)amino)-6-((phenyl(1H-1,2,3-triazol-4-yl)methyl)amino)quinoline-3-carbonitrile]	50
N#Cc1cnc2c(Cl)cc(NC(c3cc(F)c(F)c(F)c3)c3cn(C4CCN(C(=O)OCc5ccccc5)CC4)nn3)cc2c1Nc1ccc(F)c(Cl)c1 (stereo not drawn) [Example 890, benzyl 4-(4-(((8-chloro-4-((3-chloro-4-fluorophenyl)amino)-3-cyanoquinolin-6-yl)amino)(3,4,5-trifluorophenyl)methyl)-1H-1,2,3-triazol-1-yl)piperidine-1-carboxylate]	> 10000
Cn1cc(C(Nc2cc(Cl)c3ncc(C#N)c(Nc4ccc(F)c(Cl)c4)c3c2)c2ccc(F)c(F)c2)nn1 (stereo not drawn) [Example 891, 8-chloro-4-((3-chloro-4-fluorophenyl)amino)-6-(((3,4-difluorophenyl)(1-methyl-1H-1,2,3-triazol-4-yl)methyl)amino)quinoline-3-carbonitrile]	30
Cn1cc(C(Nc2cc(Cl)c3ncc(C#N)c(Nc4ccc(F)c(Cl)c4)c3c2)c2ccc(Cl)c(Cl)c2)nn1 (stereo not drawn) [Example 892, 8-chloro-4-((3-chloro-4-fluorophenyl)amino)-6-(((3,4-dichlorophenyl)(1-methyl-1H-1,2,3-triazol-4-yl)methyl)amino)quinoline-3-carbonitrile]	78
N#Cc1cnc2c(Cl)cc(NC(c3ccc(F)cc3)c3c[nH]nn3)cc2c1Nc1ccc(F)c(Cl)c1 (stereo not drawn) [Example 893, 8-chloro-4-((3-chloro-4-fluorophenyl)amino)-6-(((4-fluorophenyl)(1H-1,2,3-triazol-4-yl)methyl)amino)quinoline-3-carbonitrile]	39
N#Cc1cnc2c(Cl)cc(NC(c3ccc(OC(F)(F)F)cc3)c3cn(C4CCN(C(=O)OCc5ccccc5)CC4)nn3)cc2c1Nc1ccc(F)c(Cl)c1 (stereo not drawn) [Example 896, benzyl 4-(4-(((8-chloro-4-((3-chloro-4-fluorophenyl)amino)-3-cyanoquinolin-6-yl)amino)(4-(trifluoromethoxy)phenyl)methyl)-1H-1,2,3-triazol-1-yl)piperidine-1-carboxylate]	> 10000
N#Cc1cnc2c(Cl)cc(NC(c3ccc(OC(F)(F)F)cc3)c3cn(C4CCNCC4)nn3)cc2c1Nc1ccc(F)c(Cl)c1 (stereo not drawn) [Example 897, 8-chloro-4-((3-chloro-4-fluorophenyl)amino)-6-(((1-(piperidin-4-yl)-1H-1,2,3-triazol-4-yl)(4-(trifluoromethoxy)phenyl)methyl)amino)quinoline-3-carbonitrile]	59
CCN1CCC(n2cc(C(Nc3cc(Cl)c4ncc(C#N)c(Nc5ccc(F)c(Cl)c5)c4c3)c3ccc(OC(F)(F)F)cc3)nn2)CC1 (stereo not drawn) [Example 898, 8-chloro-4-((3-chloro-4-fluorophenyl)amino)-6-(((1-(1-ethylpiperidin-4-yl)-1H-1,2,3-triazol-4-yl)(4-(trifluoromethoxy)phenyl)methyl)amino)quinoline-3-carbonitrile]	40
N#Cc1cnc2c(Cl)cc(NC(c3ccc(F)c(F)c3)c3cn(C4CCN(C(=O)OCc5ccccc5)CC4)nn3)cc2c1Nc1ccc(F)c(Cl)c1 (stereo not drawn) [Example 899, benzyl 4-(4-(((8-chloro-4-((3-chloro-4-fluorophenyl)amino)-3-cyanoquinolin-6-yl)amino)(3,4-difluorophenyl)methyl)-1H-1,2,3-triazol-1-yl)piperidine-1-carboxylate]	> 1000
